This is an account of results in patent US9226913B2, “Methods of treating cancer using a combination of an immunomodulatory compound and an artemisinin or a derivative thereof” (Celgene Corporation, priority 2010, dated 2016).

Read-outs that look alike come from different tables or passages of the source.

The subject of one experiment is MCF7 cells. The experiment is described as follows: MTT proliferation assay, 72 hr (Example 6.2). In kind it is cell-based, human. To be noted: MCF7, 72 h, mean ± SD of at least five experiments. Here is the method: (§1) The human cancer cell lines; MCF7 (breast), HCT116 (colon) and A549 (lung) (Cancer Research UK, London, UK), were grown in either DMEM (Sigma) or RPMI (Sigma) media supplemented with 10% foetal bovine serum, 2 mM L-glutamine, 1% penicillin/streptomycin.
(§2) To study the effect of each agent on cell growth, cells growing exponentially were added to 96-well plates at a density of 3×10^4/well. Drugs (0.1-100 μM) were then added to the wells, ensuring an equal volume of 200 μl across the plate. Cell number was measured at 72 hr using a standard methylthiazoletetrazolium (MTT)-based assay without modifications as described previously (Gordi et al., 2004, Toxicol. Lett. 147: 99-107). Briefly, MTT (Sigma) was added to each well to give a working concentration of 0.4 mg/ml, and plates returned to the incubator for a further 1 hr. After this time, the medium was aspirated off, 200 μl of DMSO was then added to each well, and plates agitated gently for 5 min before measuring optical density at 540 nm in each well.

The test system of experiment [1] is HCT116^norm cells. The experiment is described as follows: MTT proliferation assay, 72 hr (Example 6.2). Type of experiment: cell-based, human. Here is the method: as §1, §2
The test system of another experiment is A549 cells. Kind of experiment: MTT proliferation assay, 72 hr (Example 6.2). In kind it is cell-based, human. Conditions: A549, 72 h, mean ± SD of at least five experiments. Here is the method: as §1, §2
(In general: Tetrazolium assays rely on reduction of a dye to a coloured formazan, in cell work by metabolically active cells.)

Experiment [2] concerns all the cell lines (A549, HCT116^norm, MCF7). Kind of experiment: Effect of low LEN concentrations alone on cell numbers and viabilities (Example 6.2). To be noted: LEN alone at 0.1 and 1 μM. In kind it is cell-based, human. Here is the method: Median-effect analysis of combination requires the extrapolation of an IC50-value. Where this was not possible, the inventors explored the effect of combining drugs by fixing the concentration of GEM or LEN (modulating agent) and testing its ability to influence the activity of ART (drug partner). […] ART was diluted in growth medium and added to the plates in a range of drug concentrations to allow determination of IC50. The effect on these IC50 values of co-culture with a sub-optimal concentration (˜IC20) of GEM or LEN was then tested. Cell numbers at 72 hr were assessed by the MTT assay as previously described. This enabled the assessment of the nature of any drug-drug interaction by comparing the IC50 for ART in the presence and absence of the combinatorial drug partner.
The lack of a dose-response in the cells rendered the primary model of drug-drug interaction ineffectual for combinations of ART with LEN. For this reason the inventors next tested the ability of LEN to sensitise cells to ART. These combinatorial analyses were performed in all the cell lines using a smaller concentration of LEN (0.1 and 1 μM). These concentrations had little effect on cell numbers and viabilities.

The test system of a further experiment is HCT116^poly cells. The experiment is described as follows: MTT proliferation assay, 72 hr (Example 6.2). In kind it is cell-based, human. To be noted: HCT116^poly (polyploid extended-passage variant). Here is the method:
as §2

Experiment [3] deals with HCT116^norm cells. Conditions: read-out: concentration required to achieve ~50% cell kill, ART and OXP used simultaneously, ART + OXP combination (ratio 1:2.5).
Excerpt: The combination studies followed an approach previously described (Gordi et al., 2004, Toxicol. Lett. 147: 99-107). HCT116^norm, A549, MCF7 and HCT116^poly cells (5×10^4/well) growing exponentially were reset in fresh culture medium and aliquoted into 96-well plates. ART was the primary drug partner and combined with OXP at an equal ratio of their respective IC50 (eg. ½×IC50 of ART was combined with ½×IC50 of OXP). Fixing this ratio also kept constant the amount of one drug respective to the other. For instance, ART was combined with OXP at a constant ratio of 1:2.5. Cells were incubated for 72 hr in a humidified atmosphere with 5% CO2 in air at 37° C. Cell number was assessed by the MTT assay as described previously. The activities of drug combinations were established by comparing optical density readings from the treated wells with the control wells with no drug treatment, and the natures of drug-drug interactions then assessed by calculating a combination index (CI) by using the median-effect equation, where CI-values of 1 indicated additivity; CI<1 indicated synergy and CI>1 indicated antagonism.

As for `Nc1cccc2c1CN(C1CCC(=O)NC1=O)C2=O` (centres unmarked) [Lenalidomide, 1-oxo-2-(2,6-dioxopiperidin-3-yl)-4-aminoisoindoline], the IC50 with MCF7 cells (Homo sapiens) is greater than 100 µM; with HCT116^norm cells [1] (Homo sapiens, 72 h, MTT, mean ± SD of at least five experiments, read-out: IC50), greater than 100 µM; with A549 cells (Homo sapiens), greater than 100 µM. Besides, in experiment [2], the “effect on cell numbers and viabilities” value is “little effect”.

On to `O=C1[O][Pt]2([NH][C@@H]3CCCC[C@H]3[NH]2)[O]C1=O` [Oxaliplatin, oxaliplatin], for which the IC50 with HCT116^poly cells came out at 5.8 µM; in the experiment with HCT116^norm cells [3], 1.6 µM; with MCF7 cells, 6.1 ± 1.1 µM; in the experiment with HCT116^norm cells [1] (72 h, MTT, mean ± SD of at least five experiments, listed as OXP, read-out: IC50), 5.3 µM; in the experiment on HCT116^norm cells [1] (72 h, MTT, mean ± SD of at least five experiments, read-out: IC50), 4.05 ± 1.8 µM; in the experiment with HCT116^norm cells [1] (single agent, read-out: concentration required to achieve ~50% cell kill, used separately) it was 4 µM. In the experiment with A549 cells, this molecule returned an IC50 of 6.2 ± 0.95 µM.
